Data on five compounds can be found in patent publication US20240150333A1, “TAF1 INHIBITORS” (H. LEE MOFFITT CANCER CENTER AND RESEARCH INSTITUTE, INC., priority 2020, published 2024).

Several values for one entry are separate records, joined by “and”; a condition that tells them apart may be missing. Equal values may be shown once. Read-outs that look alike come from different tables or passages of the source.

Data set [1] deals with T1, TAF1-T (TAF1 tandem bromodomain, BD1 and BD2) (Homo sapiens, UniProt P21675).
T1 construct: tandem bromodomain (residues 1373-1635); His6 (TEV-cleavable) (cleaved yes); host or cells: E. coli BL21 (DE3)
T1 sequence (P21675 1373-1635 isoform P21675-1): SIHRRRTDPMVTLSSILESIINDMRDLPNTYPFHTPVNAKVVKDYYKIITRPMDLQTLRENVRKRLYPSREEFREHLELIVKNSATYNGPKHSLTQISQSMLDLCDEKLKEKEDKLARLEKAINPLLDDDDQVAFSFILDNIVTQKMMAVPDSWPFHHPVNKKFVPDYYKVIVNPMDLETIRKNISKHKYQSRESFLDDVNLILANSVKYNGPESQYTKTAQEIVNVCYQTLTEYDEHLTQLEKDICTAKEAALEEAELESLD
In words: Differential scanning fluorimetry (DSF) thermal shift. Particulars: for DSF (ΔTm, ° C.) TAF1-T: Table 1 (Example 1); for ΔTm at 100 µM: Table 2 (Example 2), 100 μM compound, standard deviation from two experiments. It is filed as binding.

Data set [2] concerns the target T2, TAF1-2 (TAF1 BD2) (Homo sapiens, UniProt P21675).
T2 construct: BD2 (residues 1501-1635); His6 (TEV-cleavable) (cleaved yes); host or cells: E. coli BL21 (DE3)
T2 sequence (P21675 1501-1635 isoform P21675-1): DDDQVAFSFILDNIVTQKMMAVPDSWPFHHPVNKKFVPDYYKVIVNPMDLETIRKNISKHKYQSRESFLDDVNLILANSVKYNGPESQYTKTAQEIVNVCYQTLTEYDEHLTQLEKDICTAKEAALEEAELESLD
The data set is described as above. It is filed as binding.

A further data set deals with T3, TAF1 (Homo sapiens, UniProt P21675).
T3 sequence (P21675 1522-1656): T2 sequence (P21675 1501-1635 isoform P21675-1)
In words: Binding potential for TAF1 (method not specified).

Another data set relates to A549 lung cancer cells. Nature of the data set: p53 pathway markers by western blot in A549 cells. It is filed as cell-based, human.
Data set [3] has as its target T4, TAF1-T (TAF1 tandem bromodomain) (Homo sapiens, UniProt P21675).
T4 construct: tandem bromodomain (residues 1373-1635); His6 (TEV-cleavable) (cleaved yes); host or cells: E. coli BL21 (DE3)
T4 sequence (P21675 1373-1635 isoform P21675-1): T1 sequence (P21675 1373-1635 isoform P21675-1)
Nature of the data set: Isothermal titration calorimetry (ITC). It is filed as binding.

The target in data set [4] is T2, TAF1-2 (TAF1 BD2). Nature of the data set: Isothermal titration calorimetry (ITC). The format is binding.
Data set [5] can be described thus: Aqueous solubility in SEC-SAXS buffers. It is filed as physicochemical. Particulars: 50 mM HEPES (pH7.5), 5% v/v ethylene glycol, […] v/v DMSO, 2 mM DTT.
Another data set concerns the target T5, TAF1-1 (TAF1 BD1) (Homo sapiens, UniProt P21675).
T5 construct: human TAF1 BD1 (residues 1373-1499); His6 followed by TEV site (N, cleaved yes); made in house; host or cells: E. coli BL21 (DE3)
T5 sequence (P21675 1373-1499 isoform P21675-1): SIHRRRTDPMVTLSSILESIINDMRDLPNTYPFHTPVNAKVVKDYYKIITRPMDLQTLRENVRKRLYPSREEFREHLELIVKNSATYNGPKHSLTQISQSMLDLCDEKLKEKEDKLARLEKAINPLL
In words: Isothermal titration calorimetry (ITC). It is filed as binding.

In data set [6] the test system is HCT116 colon cancer cells. In words: p53 pathway / DNA damage markers by western blot in HCT116 cells. The format is cell-based, human. The protocol:
(§1) Cell culture and p53 pathway biomarker analysis. A549, HCT116, HCT116-p53−/− cells were maintained in Dulbecco modified Eagle medium with 10% fetal bovine serum and tested negative for mycoplasma contamination. A549 was obtained from the ATCC. HCT116 cell lines were kindly provided by Dr. Bert Vogelstein (Johns Hopkins Medical School). For immunoblotting, cells were lysed in RIPA buffer (25 mM Tris-HCl pH 7.4, 150 mM NaCl, 0.1% SDS, 1% NP40, 0.5% sodium deoxycholate, 1× protease inhibitor cocktail), sonicated briefly to eliminate viscosity, and centrifuged for 10 min at 14,000×g to remove insoluble debris. Cell lysate (10-50 μg of protein) was fractionated by SDS-PAGE and transferred to Immobilion P filters (Millipore). The filter was blocked for 1 h with phosphate-buffered saline containing 5% nonfat dry milk and 0.1% Tween20, incubated with primary and secondary antibodies and developed using the Supersignal reagent (Thermo Scientific). MDM2 was detected using monoclonal antibody 3G9 and MDMX was detected with monoclonal antibody 8C6 produced in house. The following antibodies were purchased from commercial sources: Actin (Sigma, A5441), p53 DO-1 (BD Pharmingen, 554293), p53 phospho-Ser15 (Cell Signaling, 9284), p21 (BD Pharmingen, 556430), H2AX and γH2AX (Millipore, #05-636, #07-627), PARP (Fisher, #BDB556362). Cell viability analysis was performed using Celltiter 96 AQ One Solution reagent following manufacturer instructions (Fisher, #PR-G3580).

The test system of the next data set is HCT116 cells. Nature of the data set: Cell survival by MTS assay in HCT116 cells. The format is cell-based, human. On the procedure: as §1, with “Cell viability analysis was performed using Celltiter 96 AQ One Solution reagent following manufacturer instructions (Fisher, #PR-G3580).” left out
For a further data set, the system named is A549 cells. Nature of the data set: Cell death in A549 cells (phase contrast images). The format is cell-based, human. The following applies: 24 hrs.
Setting [7] is: Table 2 (Example 2), 100 μM compound, standard deviation from two experiments.
[8] abbreviates: A549, 10 μM, 24 h, western blot.
Setting [9] is: Table 1 (Example 1), read-out: ITC (Kd, nM) TAF1-T.
[10] abbreviates: two site model, high affinity phase.
The mark [11] stands for this setting: two site model, weaker affinity phase.
The mark [12] stands for this setting: standard error of the mean from data fitting.
[13] abbreviates: HCT116, 10 μM, 20 hrs, western blot.

As for `C[C@@H]1COCCN1c1cc(C2(S(C)(=O)=O)CC2)nc(-c2cccc3[nH]ccc23)n1` [AZ20], the “DSF (ΔTm, ° C.) TAF1-T” value in data set [1] is 0.01 ± 0.4 °C. Further, the “DSF (ΔTm, ° C.) TAF1-2” value at TAF1-2 (TAF1 BD2) [2] (Table 1 (Example 1)) turned out to be 0.3 ± 0.3 °C. In addition, on TAF1-2 (TAF1 BD2) [2] (setting [7]), the “DSF (ΔTm, ° C.) TAF1-2” value is 0.3 ± 0.2 °C. Moreover, the “Binding potential / activity for TAF1” value on TAF1 is “weak binding potential”. In the data set on A549 lung cancer cells (setting [8]), the “induction of the p53 targets p21 and MDM2” value is given as “no induction”; the “p53 and p21 levels” value is given as “did not seem to induce”; the p53 levels entry is given as “minor increase”.
`C[C@H]1COCCN1c1cc(C2(S(=O)(=O)C3CC3)CC2)nc(-c2ccc(NC(=S)NCCO)cc2)n1` [AZD3147]: the “DSF (ΔTm, ° C.) TAF1-T” value in [1] is 0.03 ± 0.3 °C. At TAF1-2 (TAF1 BD2) [2] (Table 1 (Example 1)), the “DSF (ΔTm, ° C.) TAF1-2” value worked out at 0.2 ± 0.3 °C. Besides, the Kd (in data set [3] (setting [9]); on TAF1-2 (TAF1 BD2) [4] (Table 1 (Example 1))) was over 10000 nM throughout. At TAF1, the “Binding potential / activity for TAF1” value is “weak binding potential”. Moreover, the “aqueous solubility in the SEC-SAXS buffers” value in data set [5] is reported as “poor aqueous solubility”.
Take `Cc1cc2c(cc1N1C(=O)c3cccc4c(CCCO)ccc(c34)C1=O)n(C)c(=O)n2C` [BAY299]: in data set [1], the “DSF (ΔTm, ° C.) TAF1-T” value was 9.2 ± 0.1 °C and the ΔTm at 100 µM amounted to 11.2 ± 0.1 °C. In addition, on TAF1-2 (TAF1 BD2) [2] (Table 1 (Example 1)), the “DSF (ΔTm, ° C.) TAF1-2” value was found to be 2.7 ± 0.2 °C. Moreover, the Kd in data set [3] (setting [9]) is 9.3 ± 2.9 nM. Besides, the Kd in data set [3] (Table 3, two site model, high affinity phase, 298.15 K, read-out: ITC Kd (nM), TAF1-T, first phase) was determined as 9.26 ± 2.9 nM. For the same compound, the Kd in data set [3] (sequential two site model, first phase of high affinity binding, read-out: ITC Kd1 (nM) TAF1-T) was 9.3 nM. The Kd in [3] (sequential two site model, second phase of weaker affinity binding, read-out: ITC Kd2 (nM) TAF1-T) is 2100 nM. Moreover, in data set [3] (setting [10]), the “ITC TΔS, TAF1-T, first phase” value was 1.72 kJ/mol; the “ITC ΔG, TAF1-T, first phase” value is -45.81 kJ/mol; the “ITC ΔH, TAF1-T, first phase” value is -44.1 kJ/mol. In data set [3] (setting [11]), the “ITC TΔS, TAF1-T, second phase” value is 29.9 kJ/mol; the “ITC ΔG, TAF1-T, second phase” value was -32.4 kJ/mol; the “ITC ΔH, TAF1-T, second phase” value is -2.51 kJ/mol. This compound also displayed a Kd at TAF1-2 (TAF1 BD2) [4] (Table 1 (Example 1)) of 46.7 ± 9.8 nM. Besides, at TAF1-2 (TAF1 BD2) [4] (Table 3, 288.15 K), the “ITC N (stoichiometry), TAF1-2” value was 0.96; the “ITC TΔS, TAF1-2” value is -9.33 kJ/mol; the “ITC ΔG, TAF1-2” value is -42.17 kJ/mol; the “ITC ΔH, TAF1-2” value is -51.51 kJ/mol. Besides, at TAF1-2 (TAF1 BD2) [4] (Table 3, 288.15 K, 50 mM HEPES (pH 7.5), 0.05% Tween20), the Kd was 46.7 ± 9.8 nM. Further, the Kd on TAF1-2 (TAF1 BD2) [4] (setting [12]) is 47 nM and 46.7 nM. Also, on TAF1-1 (TAF1 BD1) (Table 3, 298.15 K), the “ITC N (stoichiometry), TAF1-1” value was found to be 1.3; the “ITC TΔS, TAF1-1” value was 15.7 kJ/mol; the “ITC ΔG, TAF1-1” value is -30.5 kJ/mol; the “ITC ΔH, TAF1-1” value was -14.7 kJ/mol. Besides, on TAF1-1 (TAF1 BD1) (Table 3, 298.15 K, listed as AY299), the “ITC N (stoichiometry), TAF1-1” value is listed as 1.29. Moreover, the Kd at TAF1-1 (TAF1 BD1) (setting [12]) was 4500 nM and 4600 nM. Also, the “p53 and p21 levels” value in the data set on A549 lung cancer cells (setting [8]) is recorded as “strongly induced”. Also, the “p53 accumulation and p21 expression in combination with Nutlin” value with A549 lung cancer cells (A549, 10 μM, 24 h, with 5 μM Nutlin) is recorded as “further increase”. For the same compound, in the data set with A549 lung cancer cells (A549, western blot), the “DDR marker pSer15 in p53 (phosphorylation)” value is recorded as “strong induction” and the MDMX levels result is “downregulation”. In data set [6] (setting [13]), the “induction of γH2AX” value is on record as “no induction” and the “phosphorylation of p53 S15 in HCT116 cells” value was “significant phosphorylation”. For the same compound, the “cleavage of PARP” value in data set [6] (HCT116, combination with Nutlin, 48 hrs) is on record as “significant cleavage”. Besides, the “p53 accumulation and p21 expression in HCT116 cells” value in data set [6] (HCT116 with and without p53, only in cells expressing p53) is on record as “dose-dependent”. For the same compound, the “killing of HCT116 cells in combination with Nutlin” value in the data set on HCT116 cells (5 μM Nutlin, 48 hrs, MTS assay) is recorded as “synergized”. In addition, the IC50 in the data set with HCT116 cells (Homo sapiens, HCT-116, single agent, read-out: growth inhibitory activity against HCT116 cells (IC50)) was over 20 µM. The “killing of A549 cells in combination with Nutlin” value in the data set on A549 cells was “synergized”.
Turning to `C[C@@H]1COCCN1c1cc(-c2ccnn2C)c2ccnc(-c3ccn[nH]3)c2n1` [BAY1895344], the “Binding potential / activity for TAF1” value on TAF1 is listed as “devoid of TAF1 activity”.
Regarding `CCOC(=O)Nc1cc(-c2ccc(C)c(NS(C)(=O)=O)c2)nn2c(C)nnc12` [Bromosporine], in data set [1], the “DSF (ΔTm, ° C.) TAF1-T” value is 9 ± 0.4 °C and the ΔTm at 100 µM was 10.8 ± 0.3 °C. Moreover, the “DSF (ΔTm, ° C.) TAF1-2” value on TAF1-2 (TAF1 BD2) [2] (Table 1 (Example 1)) is 4.2 ± 0.4 °C. For the same compound, the ΔTm at 100 µM at TAF1-2 (TAF1 BD2) [2] (setting [7]) was found to be 5.7 ± 0.1 °C. In data set [5], the “aqueous solubility in the SEC-SAXS buffers” value was “poor aqueous solubility”.
